Assay results: PubChem BioAssay (NCI)
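1) Cells in 96-well plates. 2) Compound, 48 h, 5 concentrations. 3) Linear interpolation between surrounding doses. 4) Unreached endpoint = highest concentration. Here, GI50 denotes the concentration required for 50% inhibition of growth. TGI is the concentration that stops growth completely.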

Columns and labels:
Assay in all cases: DTP human tumour cell line panel, 48 h
BT-549 breast = tested on: BT-549 breast
OVCAR-8 ovarian = tested on: OVCAR-8 ovarian
MDA-MB-231 breast = tested on: MDA-MB-231 breast
NCI/ADR-RES ovarian = tested on: NCI/ADR-RES ovarian
SW-620 colon = tested on: SW-620 colon
KM12 colon = tested on: KM12 colon
SK-MEL-28 melanoma = tested on: SK-MEL-28 melanoma
HCT-15 colon = tested on: HCT-15 colon
SF-539 CNS = tested on: SF-539 CNS
K-562 leukemia = tested on: K-562 leukemia

| Structure (SMILES) | TGI (BT-549 breast) [nM] | TGI (OVCAR-8 ovarian) [µM] | TGI (MDA-MB-231 breast) [µM] | TGI (NCI/ADR-RES ovarian) [µM] | TGI (SW-620 colon) [µM] | TGI (KM12 colon) [µM] | TGI (SK-MEL-28 melanoma) [µM] | TGI (HCT-15 colon) [µM] | TGI (SF-539 CNS) [µM] | TGI (K-562 leukemia) [µM] | GI50 (OVCAR-8 ovarian) [nM] | GI50 (K-562 leukemia) [nM] | GI50 (SW-620 colon) [nM] | GI50 (KM12 colon) [nM] | GI50 (SK-MEL-28 melanoma) [nM] | GI50 (HCT-15 colon) [nM] | GI50 (SF-539 CNS) [nM] | GI50 (MDA-MB-231 breast) [nM] | GI50 (NCI/ADR-RES ovarian) [nM] | GI50 (BT-549 breast) [nM] |
| --- | --- | --- | --- | --- | --- | --- | --- | --- | --- | --- | --- | --- | --- | --- | --- | --- | --- | --- | --- | --- |
| O=c1c2ccccc2nc(-c2cccc([N+](=O)[O-])c2)n1O | 80800 | 63.9 | > 100 | > 87.4 | > 100 | > 100 | > 100 | > 100 | > 100 | – | – | – | – | – | – | – | – | – | – | – |
| COc1nc(NC2OC(COC(C)=O)C(OC(C)=O)C(OC(C)=O)C2OC(C)=O)c(N=CC=Nc2c(NC3OC(COC(C)=O)C(OC(C)=O)C(OC(C)=O)C3OC(C)=O)nc(OC)[nH]c2=O)c(=O)[nH]1 (centres undefined) | – | > 100 | – | – | > 100 | > 100 | > 100 | – | > 100 | > 100 | – | – | – | – | – | – | – | – | – | – |
| CN(C)CCC(N)(P(=O)([O-])[O-])P(=O)([O-])[O-].N.N.[Pt+2] | – | > 100 | – | – | > 100 | > 100 | > 100 | > 100 | > 100 | > 100 | > 100000 | > 100000 | > 100000 | > 100000 | > 100000 | > 100000 | > 100000 | – | – | – |
| C/C(=N/NC(=O)c1ccccc1S(N)(=O)=O)C(CN1CCCCC1)C(C1=C(O)C2C=CC=CC2OC1=O)c1ccccc1 (centres undefined) | – | > 100 | – | – | > 100 | > 100 | – | > 100 | > 100 | > 100 | – | – | – | – | – | – | – | – | – | – |
| Cc1cc(N(CCC#N)CCC#N)ccc1/C=C(\NC(=O)/C=C/c1ccccc1)C(=O)N=[N+]=[N-] | – | > 100 | – | – | > 100 | – | > 100 | > 100 | > 100 | > 100 | – | – | – | – | – | – | – | – | – | – |
| C/C(CN1C(=O)c2ccccc2C1=O)=N\NS(=O)(=O)c1ccc2ccccc2c1 | – | > 100 | – | – | > 100 | > 100 | > 100 | > 100 | > 100 | > 100 | – | – | – | – | – | – | – | – | – | – |
| O=C(CCc1nnc2s/c(=C\c3ccc([N+](=O)[O-])cc3)c(=O)n12)Nc1ccc(Cl)c(Cl)c1 | – | 38.9 | – | – | 58.4 | 31.2 | 63.8 | > 100 | 32.2 | 63.9 | – | – | – | – | – | – | – | – | – | – |
| NC(N)NCCCc1cn2c(n1)C1CCCN1C(=O)C2Cc1ccccc1 (centres undefined) | – | > 100 | – | – | > 100 | > 100 | > 100 | > 100 | > 100 | > 100 | – | – | – | – | – | – | – | – | – | – |
| CC(C)(CN1CCCCC1)C(=O)/C=C/c1ccccc1 | – | 49.5 | – | – | 27.8 | 28.9 | 33 | 67.2 | 22.9 | 24.9 | – | – | – | – | – | – | – | – | – | – |
| O=C1C2C3CC4C5C3C1C5C1(SCCS1)C42 (centres undefined) | – | > 100 | – | – | > 100 | > 100 | > 100 | > 100 | > 100 | > 100 | – | – | – | – | – | – | – | – | – | – |
| CCN(CC)CC(=O)NC1c2ccccc2Oc2ccccc21 | – | > 100 | – | – | > 100 | – | > 100 | > 100 | > 100 | > 100 | – | – | – | – | – | – | – | – | – | – |
| C[C@@H]1C(=O)CC2C(C)(C)CCC[C@]2(C)[C@@]12CC[C@]1(C=COC1)O2 (some centres undefined) | – | > 100 | – | – | > 100 | > 100 | – | > 100 | > 100 | 80.4 | – | – | – | – | – | – | – | – | – | – |
| CC(C)=CCC/C(C)=C/CC/C(C)=C/CSC[C@H](NC(=O)CCCCCN1CCN(C)CC1)C(=O)NC1CCCCCC1 | – | 12.2 | 3.86 | 14.6 | 3.88 | 3.86 | 3.32 | 3.93 | 3.38 | 5.14 | 3330 | 2240 | 1870 | 1970 | 1700 | 1940 | 1890 | 1930 | 3890 | – |
| CC(=O)/C(=C\c1ccc(Cl)cc1)c1ccccc1 | 946 | > 100 | > 100 | > 100 | > 64.6 | > 100 | > 100 | > 100 | – | > 100 | 304 | 50.1 | 44.5 | 54 | 2050 | 331 | – | 212 | 2070 | 107 |
| O=C(CCc1n[nH]c(=S)o1)Nc1cc(Cl)ccc1Cl | – | > 100 | – | – | 32.1 | > 100 | > 100 | 38.8 | > 100 | 52.1 | – | – | – | – | – | – | – | – | – | – |
| O=S(=O)(NCCCNc1cc(-c2cn(-c3ccccc3)nc2-c2cccc(O)c2)ccn1)c1ccc(C(F)(F)F)cc1 | 2800 | 7.66 | – | 7.13 | 3.93 | 4.49 | 4.29 | 3.36 | 3.77 | 4.59 | 2470 | 924 | 1780 | 1890 | 1990 | 1470 | 1830 | – | 2450 | 1390 |
